From ChEMBL document CHEMBL1201862, “PubChem BioAssay data set” (2004)
Active and inactive are the calls of the source.

What was measured:
Mu-type opioid receptor = Mu-type opioid receptor (Homo sapiens, UniProt P35372); assay: (§1) Counterscreen for agonists of heterodimerization of the mu 1 (OPRM1) and delta 1 (OPRD1) opioid receptors: Luminescence-based cell-based high throughput dose response assay to identify agonists of OPRM1 homodimerization.; format: functional
[1] = target: T1, Short transient receptor potential channel 4 (Mus musculus, UniProt Q9QUQ5); assay: mouse TRPC4 channel activators, dose response, cell-based, HEK293 TRPC4/mu-opioid, Fluo-4 calcium (AID 434937); format: functional
T1 sequence (Q9QUQ5 whole entry): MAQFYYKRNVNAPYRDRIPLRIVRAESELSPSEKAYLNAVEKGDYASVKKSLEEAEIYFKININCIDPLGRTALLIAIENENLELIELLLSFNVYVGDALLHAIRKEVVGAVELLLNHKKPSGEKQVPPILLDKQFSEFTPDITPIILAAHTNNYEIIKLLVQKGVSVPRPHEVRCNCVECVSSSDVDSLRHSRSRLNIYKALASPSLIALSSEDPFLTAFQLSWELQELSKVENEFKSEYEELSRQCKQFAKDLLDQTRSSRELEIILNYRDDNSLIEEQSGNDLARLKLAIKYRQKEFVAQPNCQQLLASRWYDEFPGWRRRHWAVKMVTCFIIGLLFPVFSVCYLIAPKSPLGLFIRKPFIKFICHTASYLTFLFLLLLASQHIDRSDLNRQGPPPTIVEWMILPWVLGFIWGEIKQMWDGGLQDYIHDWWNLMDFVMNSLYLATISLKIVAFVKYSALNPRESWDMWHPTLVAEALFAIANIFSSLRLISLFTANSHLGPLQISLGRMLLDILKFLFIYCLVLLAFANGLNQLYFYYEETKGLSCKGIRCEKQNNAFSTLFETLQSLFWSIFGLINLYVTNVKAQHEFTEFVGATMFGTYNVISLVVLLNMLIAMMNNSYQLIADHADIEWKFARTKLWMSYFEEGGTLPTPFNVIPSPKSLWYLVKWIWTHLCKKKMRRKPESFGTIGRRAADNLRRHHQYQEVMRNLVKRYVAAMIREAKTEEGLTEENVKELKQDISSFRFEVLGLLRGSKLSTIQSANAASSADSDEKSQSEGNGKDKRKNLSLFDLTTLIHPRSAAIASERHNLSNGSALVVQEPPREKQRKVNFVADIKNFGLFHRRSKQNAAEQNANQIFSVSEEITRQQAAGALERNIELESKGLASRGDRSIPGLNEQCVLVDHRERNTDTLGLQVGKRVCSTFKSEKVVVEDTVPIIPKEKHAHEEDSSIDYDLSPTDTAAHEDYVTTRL

[2] = target: 5-hydroxytryptamine receptor 5A (Homo sapiens, UniProt P47898); assay: Counterscreen for agonists of OPRM1-OPRD1 heterodimerization: luminescence-based cell-based high throughput dose response assay to identify agonists of 5-hydroxytryptamine (serotonin) 5A receptor (HTR5A). [Related pubchem assays (depositor defined):AID504326, AID504355, AID504692, AID504904, AID504905]; format: functional
Chain of 5-hydroxytryptamine receptor 5A (P47898 whole entry): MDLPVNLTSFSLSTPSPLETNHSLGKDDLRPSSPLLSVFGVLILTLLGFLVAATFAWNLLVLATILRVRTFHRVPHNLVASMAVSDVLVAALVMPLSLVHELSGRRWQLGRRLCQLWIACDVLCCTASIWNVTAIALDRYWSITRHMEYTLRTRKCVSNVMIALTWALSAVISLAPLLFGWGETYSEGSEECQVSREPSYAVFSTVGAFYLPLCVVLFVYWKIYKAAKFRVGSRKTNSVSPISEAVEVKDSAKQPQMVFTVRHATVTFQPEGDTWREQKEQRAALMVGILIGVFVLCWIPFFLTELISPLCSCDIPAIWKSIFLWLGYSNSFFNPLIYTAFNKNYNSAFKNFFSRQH

[3] = target: Delta-type opioid receptor (Homo sapiens, UniProt P41143); assay: as §1, with “of OPRD1” for “of OPRM1”, “homodimerization. [Related pubchem assays (depositor defined):AID504326, AID504355, AID504692, AID504904, AID504905]” for “homodimerization.”; format: functional
Chain of Delta-type opioid receptor (P41143 whole entry): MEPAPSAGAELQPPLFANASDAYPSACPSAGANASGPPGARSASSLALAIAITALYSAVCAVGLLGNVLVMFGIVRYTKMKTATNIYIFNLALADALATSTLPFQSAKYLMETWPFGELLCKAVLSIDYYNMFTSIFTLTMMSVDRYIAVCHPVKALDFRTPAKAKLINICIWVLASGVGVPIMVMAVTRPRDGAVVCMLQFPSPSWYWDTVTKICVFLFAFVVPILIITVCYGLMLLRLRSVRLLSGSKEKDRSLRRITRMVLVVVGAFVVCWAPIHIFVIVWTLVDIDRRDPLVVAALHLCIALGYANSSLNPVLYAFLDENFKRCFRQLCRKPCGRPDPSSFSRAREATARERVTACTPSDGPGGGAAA

[4] = HeLa cell cytotoxicity, dose response, cytotoxicity control for MgcRacGAP inhibitor project (AID 624300); format: functional
[5] = Counterscreen for activators of the function of SWI/SNF related, matrix associated, actin dependent regulator of chromatin, subfamily a, member 2 (SMARCA2, BRM): Luminescence-based cell-based high throughput dose response assay to identify non-selective compounds using the VP16 reporter assay.; format: functional
[6] = target: SWI/SNF-related matrix-associated actin-dependent regulator of chromatin subfamily A member 2 (Homo sapiens, UniProt P51531); assay: Luminescence-based cell-based high throughput dose response assay to identify activators of the function of SWI/SNF related, matrix associated, actin dependent regulator of chromatin, subfamily a, member 2 (SMARCA2, BRM).; format: functional
HeLa = assay: HeLa cell cytotoxicity, dose response, cytotoxicity control, 24 h, cherry-picked samples (AID 504726); format: functional, cell-based; conditions: Homo sapiens;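 further: potency for cytotoxicity as loss of luminescence signal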
HEK293 [7] = assay: cells; conditions: Homo sapiens
[8] = ARNT/TACC3 interaction disruptors, potency, confirmation, biochemical, AlphaScreen, cherry-picked samples (AID 651703); format: functional, Homo sapiens;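 further: His-tagged ARNT PAS-B domain paired with GST-TACC3 E629A dimer coactivator fragment; potency of inhibitors that break up the complex and lower AlphaScreen signal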
[9] = target: T2, Rac GTPase-activating protein 1 (Homo sapiens, UniProt Q9H0H5); assay: MgcRacGAP GTPase-activating activity inhibitors, confirmation, biochemical, ADP Hunter fluorescence, primary and confirmatory (AID 624330); format: functional
T2 sequence (Q9H0H5 whole entry): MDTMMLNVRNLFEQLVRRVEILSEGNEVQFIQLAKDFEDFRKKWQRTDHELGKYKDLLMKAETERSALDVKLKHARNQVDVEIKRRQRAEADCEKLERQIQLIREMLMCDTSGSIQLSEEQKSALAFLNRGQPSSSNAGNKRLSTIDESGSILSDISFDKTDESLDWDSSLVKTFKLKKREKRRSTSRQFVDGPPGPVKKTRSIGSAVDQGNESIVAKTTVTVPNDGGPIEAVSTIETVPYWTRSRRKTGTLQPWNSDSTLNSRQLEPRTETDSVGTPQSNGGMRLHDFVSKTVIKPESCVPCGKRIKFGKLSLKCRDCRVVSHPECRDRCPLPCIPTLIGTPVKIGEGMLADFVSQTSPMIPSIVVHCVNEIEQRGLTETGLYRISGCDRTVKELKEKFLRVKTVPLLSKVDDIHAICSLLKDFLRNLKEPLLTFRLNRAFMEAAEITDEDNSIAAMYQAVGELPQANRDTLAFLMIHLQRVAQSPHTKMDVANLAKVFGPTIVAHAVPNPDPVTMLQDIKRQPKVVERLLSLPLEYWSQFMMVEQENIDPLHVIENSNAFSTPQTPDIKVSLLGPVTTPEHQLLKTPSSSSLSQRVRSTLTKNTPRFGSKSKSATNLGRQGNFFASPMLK

HEK293 [10] = assay: cells; conditions: Homo sapiens; remark: listed apart in the source
ORF 73 = ORF 73 (Human herpesvirus 8, UniProt O40947); assay: inhibitors of C-LANA binding to LBS DNA, dose response, biochemical, fluorescence polarization, cherry-picked samples (AID 504725); design: species or system Human gammaherpesvirus 8;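 further: fluorescence polarization of a labeled DNA duplex reporting LANA DNA binding; potency is for inhibitors that block LANA binding to the DNA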
Chain of ORF 73 (O40947 whole entry): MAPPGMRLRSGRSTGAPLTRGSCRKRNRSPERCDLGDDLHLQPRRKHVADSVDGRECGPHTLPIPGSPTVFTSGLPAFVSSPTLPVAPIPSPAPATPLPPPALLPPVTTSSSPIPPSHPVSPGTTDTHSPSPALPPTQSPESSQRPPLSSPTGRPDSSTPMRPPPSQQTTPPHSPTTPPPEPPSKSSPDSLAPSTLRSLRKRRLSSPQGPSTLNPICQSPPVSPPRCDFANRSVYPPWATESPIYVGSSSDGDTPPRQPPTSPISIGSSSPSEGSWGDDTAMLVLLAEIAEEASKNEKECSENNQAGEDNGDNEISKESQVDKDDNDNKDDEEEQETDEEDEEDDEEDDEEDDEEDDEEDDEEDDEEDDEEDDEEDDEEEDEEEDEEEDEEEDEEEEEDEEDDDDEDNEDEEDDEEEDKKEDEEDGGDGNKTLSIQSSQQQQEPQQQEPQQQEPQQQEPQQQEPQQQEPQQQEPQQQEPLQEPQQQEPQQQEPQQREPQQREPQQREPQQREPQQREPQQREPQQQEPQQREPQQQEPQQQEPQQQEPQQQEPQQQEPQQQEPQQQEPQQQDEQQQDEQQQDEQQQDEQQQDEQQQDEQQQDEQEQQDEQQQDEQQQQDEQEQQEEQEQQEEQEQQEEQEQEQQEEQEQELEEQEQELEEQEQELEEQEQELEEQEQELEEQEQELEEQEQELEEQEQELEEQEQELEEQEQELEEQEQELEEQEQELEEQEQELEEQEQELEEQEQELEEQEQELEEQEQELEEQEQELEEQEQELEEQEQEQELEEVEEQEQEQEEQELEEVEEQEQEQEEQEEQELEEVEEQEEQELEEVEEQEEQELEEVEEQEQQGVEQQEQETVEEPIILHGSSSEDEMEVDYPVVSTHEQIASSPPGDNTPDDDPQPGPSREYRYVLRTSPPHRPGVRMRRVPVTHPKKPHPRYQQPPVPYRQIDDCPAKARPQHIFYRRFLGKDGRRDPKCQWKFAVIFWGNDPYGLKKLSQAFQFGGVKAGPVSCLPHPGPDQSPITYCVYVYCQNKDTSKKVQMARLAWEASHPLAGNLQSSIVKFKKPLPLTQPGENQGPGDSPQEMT

Keap1/Nrf2 = Keap1/Nrf2 (Homo sapiens, UniProt Q14145); assay: Keap1-Nrf2 protein-protein interaction inhibitors, dose response, biochemical, fluorescence polarization, cherry-picked samples (AID 588683)
Chain of Keap1/Nrf2 (Q16236 whole entry): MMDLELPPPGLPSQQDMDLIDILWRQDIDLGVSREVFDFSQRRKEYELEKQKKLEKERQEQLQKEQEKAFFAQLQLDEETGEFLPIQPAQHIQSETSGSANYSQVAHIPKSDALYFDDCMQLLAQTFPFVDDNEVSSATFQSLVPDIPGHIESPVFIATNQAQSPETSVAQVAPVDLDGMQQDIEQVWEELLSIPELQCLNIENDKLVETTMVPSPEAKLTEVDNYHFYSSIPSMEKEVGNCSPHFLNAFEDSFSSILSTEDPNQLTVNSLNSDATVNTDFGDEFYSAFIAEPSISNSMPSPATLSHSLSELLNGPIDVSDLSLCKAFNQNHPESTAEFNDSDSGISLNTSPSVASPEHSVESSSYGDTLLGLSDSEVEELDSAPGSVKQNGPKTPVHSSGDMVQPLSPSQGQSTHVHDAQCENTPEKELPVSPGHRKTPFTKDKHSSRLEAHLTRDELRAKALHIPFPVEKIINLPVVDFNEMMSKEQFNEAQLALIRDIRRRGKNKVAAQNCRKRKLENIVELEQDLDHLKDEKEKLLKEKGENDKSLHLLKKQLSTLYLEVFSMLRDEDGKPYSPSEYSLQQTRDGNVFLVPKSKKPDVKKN
Chain of Keap1/Nrf2 (Q14145 whole entry): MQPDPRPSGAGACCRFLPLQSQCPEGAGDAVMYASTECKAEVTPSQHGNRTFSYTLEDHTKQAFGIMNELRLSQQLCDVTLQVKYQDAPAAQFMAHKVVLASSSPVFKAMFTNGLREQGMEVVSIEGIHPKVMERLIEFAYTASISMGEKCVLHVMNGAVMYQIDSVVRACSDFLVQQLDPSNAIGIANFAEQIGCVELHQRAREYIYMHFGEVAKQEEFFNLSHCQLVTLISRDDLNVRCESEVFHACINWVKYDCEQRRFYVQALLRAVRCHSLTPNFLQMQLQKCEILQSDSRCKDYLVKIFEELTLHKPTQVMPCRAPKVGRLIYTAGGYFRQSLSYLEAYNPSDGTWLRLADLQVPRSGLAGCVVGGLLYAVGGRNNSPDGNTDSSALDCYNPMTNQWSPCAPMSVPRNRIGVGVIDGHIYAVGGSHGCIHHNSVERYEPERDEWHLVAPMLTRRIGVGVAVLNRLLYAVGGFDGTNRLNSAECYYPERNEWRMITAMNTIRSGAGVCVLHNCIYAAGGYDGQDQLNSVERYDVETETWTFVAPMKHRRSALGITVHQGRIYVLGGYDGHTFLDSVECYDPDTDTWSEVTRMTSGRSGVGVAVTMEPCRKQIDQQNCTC

[11] = target: Dual specificity protein phosphatase 3 (Homo sapiens, UniProt P51452); assay: SAR VHR1 Fluorescent Assay for In Vitro dose response studies Set 3. [Related pubchem assays (depositor defined):AID1654, AID1661, AID1878]; format: functional
Chain of Dual specificity protein phosphatase 3 (P51452 whole entry): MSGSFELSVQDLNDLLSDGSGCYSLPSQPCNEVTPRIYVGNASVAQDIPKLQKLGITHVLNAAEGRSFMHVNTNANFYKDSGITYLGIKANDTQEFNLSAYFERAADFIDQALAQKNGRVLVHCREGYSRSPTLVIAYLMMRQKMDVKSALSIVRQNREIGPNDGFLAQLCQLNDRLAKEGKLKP

Cytochrome P450 2D6 = Cytochrome P450 2D6 (Homo sapiens, UniProt P10635);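 further: CYP2D6 member of a cytochrome P450 panel assay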
Chain of Cytochrome P450 2D6 (P10635 whole entry): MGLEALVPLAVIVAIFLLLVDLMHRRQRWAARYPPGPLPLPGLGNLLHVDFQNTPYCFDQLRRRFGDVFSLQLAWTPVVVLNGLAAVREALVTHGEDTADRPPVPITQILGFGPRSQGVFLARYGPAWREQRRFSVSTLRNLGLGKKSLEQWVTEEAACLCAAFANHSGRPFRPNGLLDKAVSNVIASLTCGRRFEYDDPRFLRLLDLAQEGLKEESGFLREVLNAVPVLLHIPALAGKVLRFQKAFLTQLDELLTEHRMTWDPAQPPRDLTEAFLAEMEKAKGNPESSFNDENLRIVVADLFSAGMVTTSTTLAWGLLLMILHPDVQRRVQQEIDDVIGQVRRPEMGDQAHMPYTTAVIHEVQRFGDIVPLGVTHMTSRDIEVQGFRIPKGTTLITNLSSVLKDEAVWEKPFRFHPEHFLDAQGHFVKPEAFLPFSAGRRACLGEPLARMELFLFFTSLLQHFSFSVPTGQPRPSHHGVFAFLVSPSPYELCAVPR

[12] = target: T3, Corticotropin-releasing factor receptor 2/Corticotropin-releasing factor-binding protein (Homo sapiens, UniProt P24387+Q13324); assay: Dose Response confirmation of uHTS hits for small molecule antagonists of the CRF-binding protein and CRF-R2 receptor complex.; format: functional; conditions: read-out: IC50_Mean
T3 sequence (Q13324 whole entry): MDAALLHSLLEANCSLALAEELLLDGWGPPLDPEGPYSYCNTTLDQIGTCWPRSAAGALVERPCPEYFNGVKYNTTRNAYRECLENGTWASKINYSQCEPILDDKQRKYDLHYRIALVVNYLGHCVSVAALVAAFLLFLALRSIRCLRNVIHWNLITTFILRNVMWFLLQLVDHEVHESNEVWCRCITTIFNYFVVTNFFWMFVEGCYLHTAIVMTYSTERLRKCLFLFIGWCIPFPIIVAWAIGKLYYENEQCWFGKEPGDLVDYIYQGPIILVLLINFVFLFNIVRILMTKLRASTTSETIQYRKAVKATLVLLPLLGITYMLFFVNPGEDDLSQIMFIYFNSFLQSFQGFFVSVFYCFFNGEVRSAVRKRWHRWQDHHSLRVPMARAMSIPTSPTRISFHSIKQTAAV
T3 sequence (P24387 whole entry): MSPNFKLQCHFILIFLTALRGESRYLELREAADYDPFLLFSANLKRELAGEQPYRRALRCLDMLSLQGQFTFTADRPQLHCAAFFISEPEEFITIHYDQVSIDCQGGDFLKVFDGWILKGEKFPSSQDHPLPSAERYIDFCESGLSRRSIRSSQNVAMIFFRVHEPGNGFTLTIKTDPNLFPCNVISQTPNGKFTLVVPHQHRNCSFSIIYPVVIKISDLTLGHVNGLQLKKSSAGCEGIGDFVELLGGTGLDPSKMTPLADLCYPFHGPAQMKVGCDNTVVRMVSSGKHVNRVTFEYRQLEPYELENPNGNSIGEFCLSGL

[13] = target: T3, Corticotropin-releasing factor receptor 2/Corticotropin-releasing factor-binding protein; assay: activators of CRF receptor 2 with binding protein – uHTS hits, confirmation (AID 602473); format: functional; conditions: read-out: EC50_Mean
Phospholipase A2 = Phospholipase A2 (Homo sapiens, UniProt P04054); assay: PLA2 enzyme inhibitors, dose response, counter-screen for ATG4B inhibitor project, biochemical, set 2 (AID 588586); format: functional
Chain of Phospholipase A2 (P04054 whole entry): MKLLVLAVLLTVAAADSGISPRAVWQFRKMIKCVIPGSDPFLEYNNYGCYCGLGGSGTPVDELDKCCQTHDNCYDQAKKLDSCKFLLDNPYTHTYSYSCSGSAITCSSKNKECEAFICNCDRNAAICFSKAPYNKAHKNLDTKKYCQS

Cysteine protease ATG4B = target: T4, Cysteine protease ATG4B (Homo sapiens, UniProt Q9Y4P1); assay: ATG4B protease inhibitors, dose response, biochemical, fluorescence, set 2 (AID 588584); format: functional
T4 sequence (Q9Y4P1 whole entry): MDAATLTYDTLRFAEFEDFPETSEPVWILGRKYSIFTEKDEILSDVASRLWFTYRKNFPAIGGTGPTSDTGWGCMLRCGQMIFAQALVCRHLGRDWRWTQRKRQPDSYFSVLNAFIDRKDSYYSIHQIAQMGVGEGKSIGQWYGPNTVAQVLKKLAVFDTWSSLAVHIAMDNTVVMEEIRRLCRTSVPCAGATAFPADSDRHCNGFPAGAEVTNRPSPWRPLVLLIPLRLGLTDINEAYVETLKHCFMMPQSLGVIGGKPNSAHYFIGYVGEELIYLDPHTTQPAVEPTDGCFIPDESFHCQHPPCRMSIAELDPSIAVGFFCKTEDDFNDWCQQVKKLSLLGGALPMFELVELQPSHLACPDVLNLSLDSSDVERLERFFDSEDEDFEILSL

Cytochrome P450 3A4 = Cytochrome P450 3A4 (Homo sapiens, UniProt P08684);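 further: CYP3A4 tested as one member of a cytochrome P450 panel screen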
Chain of Cytochrome P450 3A4 (P08684 whole entry): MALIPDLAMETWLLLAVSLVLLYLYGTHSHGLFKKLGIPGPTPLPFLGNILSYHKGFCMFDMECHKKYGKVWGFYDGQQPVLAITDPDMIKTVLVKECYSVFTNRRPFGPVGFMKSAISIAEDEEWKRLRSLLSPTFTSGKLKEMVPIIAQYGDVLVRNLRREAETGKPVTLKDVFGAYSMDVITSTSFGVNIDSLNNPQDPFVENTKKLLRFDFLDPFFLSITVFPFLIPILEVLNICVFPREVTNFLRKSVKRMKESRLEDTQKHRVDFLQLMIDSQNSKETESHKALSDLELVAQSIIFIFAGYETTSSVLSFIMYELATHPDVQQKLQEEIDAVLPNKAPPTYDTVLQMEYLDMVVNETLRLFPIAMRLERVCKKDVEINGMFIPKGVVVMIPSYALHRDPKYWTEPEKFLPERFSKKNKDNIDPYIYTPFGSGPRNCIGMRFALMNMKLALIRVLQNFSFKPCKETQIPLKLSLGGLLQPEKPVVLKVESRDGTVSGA

Jurkat = assay: antigen receptor-induced NF-kB inhibitors, dose response, Jurkat, luciferase reporter, luminescence, B- and T-cell (AID 489004); format: functional, cell-based; conditions: Homo sapiens;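 further: NF-kB luciferase reporter Jurkat cells stimulated with PMA plus ionomycin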
[14] = cytotoxicity in HEK-293T NF-kB-Luc cells, dose response, cytotoxicity control for B/T-cell NF-kB inhibitor project, cell-based, uHTS hits (AID 489019); format: functional;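 further: IC50 reflects cytotoxicity as loss of cell viability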

Chain of Mu-type opioid receptor (P35372 whole entry): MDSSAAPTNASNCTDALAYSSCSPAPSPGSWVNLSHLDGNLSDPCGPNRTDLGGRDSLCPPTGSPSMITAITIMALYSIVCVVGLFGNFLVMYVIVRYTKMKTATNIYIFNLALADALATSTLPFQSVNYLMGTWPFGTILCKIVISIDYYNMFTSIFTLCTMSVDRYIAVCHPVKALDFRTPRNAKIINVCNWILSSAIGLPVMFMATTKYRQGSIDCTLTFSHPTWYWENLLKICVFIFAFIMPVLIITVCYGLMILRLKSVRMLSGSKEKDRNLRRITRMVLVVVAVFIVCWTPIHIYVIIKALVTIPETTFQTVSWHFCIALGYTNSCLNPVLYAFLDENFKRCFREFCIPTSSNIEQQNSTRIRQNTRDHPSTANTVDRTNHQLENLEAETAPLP

Structure (SMILES): Cc1ccccc1N(CC(=O)N/N=C/c1ccc(F)cc1)C(=O)c1ccccc1
- EC50 (Mu-type opioid receptor): > 92.5 µM (inactive)
- EC50 [1]: 2.11 µM (active)
- EC50 [2]: > 92.5 µM (inactive)
- EC50 [3]: > 92.5 µM (inactive)

Structure (SMILES): CN(C)CCNc1ccc2ncn3c4ccc(O)cc4c(=O)c1c23
- CC50 [4]: 49.2 µM (active)
- EC50 [5]: > 91.1 µM (inactive)
- EC50 [6]: 11.5 µM (inactive)
- AC50 (HeLa): 11.5 µM (active)
- EC50 (HEK293 [7]): > 59.6 µM (inactive)
- AC50 [8]: 89 µM (active)
- IC50 [9]: 46.8 µM (active)
- EC50 (HEK293 [10]): > 6.62 µM (active)
- AC50 (ORF 73): 6.38 µM (active)
- AC50 (Keap1/Nrf2): 3.79 µM (active)

Structure (SMILES): COc1cccc2sc(NC(=O)c3ccc(C(=O)c4ccccc4)cc3)nc12
- IC50 [11]: > 66 µM (inactive)

Structure (SMILES): CCOc1ccc(C(=O)Nc2cnn(Cc3ccc(Cl)c(Cl)c3)c2)cc1
- AC50 (Cytochrome P450 2D6): 15.8 µM (inconclusive)
- IC50 [12]: > 47.1 µM (inactive)
- EC50 [13]: > 53 µM (inactive)
- IC50 (Phospholipase A2): 79.1 µM (inactive)
- IC50 (Cysteine protease ATG4B): 68.1 µM (inactive)
- AC50 (Cytochrome P450 3A4): 22.4 µM (inconclusive)

Structure (SMILES): CCCCCNC(=O)c1ccc2c(=O)n(CC3CCCO3)c(=O)[nH]c2c1 (stereo not drawn)
- IC50 (Jurkat): > 80 µM (inactive)
- IC50 [14]: > 80 µM (inactive)
